Assay results reported in US20020111274A1, “1-alkyl-3-[1-(substituted phenyl) benzotriazol-6-yl] uracils” (BASF Aktiengesellschaft, priority 2000, published 2002).

Legend:
Parameters in all cases: scale not given here
ECHOG Barnyardgrass [1] = assay: Preemergence herbicidal evaluation, ECHOG; assay type: in vivo, Echinochloa crus-galli, (L.) Beau; settings: preemergence
Summary of the method: (§1)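 Seeds mixed with potting soil in cups, then sprayed preemergence with aqueous acetone test solution at about 0.013 to 0.800 kg per hectare equivalent. Cups kept under standard greenhouse care; plants rated on a visual scale four to five weeks after treatment.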

ZEAMX Corn, Field [2] = assay: Postemergence herbicidal evaluation, ZEAMX; assay type: in vivo, Zea mays, L. (Sammel-Bezeichnung); settings: postemergence spray, rated about two-three weeks after treatment
Summary of the method: (§2)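 Visual injury rating ~2–3 wk post-spray; replicate tests averaged. Two-week-old seedlings; foliar spray at 40 psi; 0.006–0.400 kg ai/ha in 80/20 acetone/water + 1.0% methylated seed oil.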

SETVI Foxtail, Green [3] = assay: Preemergence herbicidal evaluation, SETVI; assay type: in vivo, Setaria viridis, (L.) Beau; settings: preemergence
Summary of the method: as §1

ZEAMX Corn, Field [4] = assay: Preemergence herbicidal evaluation, ZEAMX; assay type: in vivo, Zea mays, L. (Sammel-Bezeichnung); settings: preemergence
Summary of the method: as §1

SETVI Foxtail, Green [5] = assay: Postemergence herbicidal evaluation, SETVI; assay type: in vivo, Setaria viridis, (L.) Beau; settings: postemergence spray, rated about two-three weeks after treatment
Summary of the method: as §2

CASOB Sicklepod [6] = assay: Preemergence herbicidal evaluation, CASOB; assay type: in vivo, Cassia obtusifolia, L.; settings: preemergence
Summary of the method: as §1

AMBEL Ragweed, Common [7] = assay: Postemergence herbicidal evaluation, AMBEL; assay type: in vivo, Ambrosia artemisifolia, L.; settings: postemergence spray, rated about two-three weeks after treatment
Summary of the method: as §2

AMBEL Ragweed, Common [8] = assay: Preemergence herbicidal evaluation, AMBEL; assay type: in vivo, Ambrosia artemisifolia, L.; settings: preemergence
Summary of the method: as §1

[9] = tested on: TRZAWR Wheat, Winter, cv Riband; assay: Postemergence herbicidal evaluation, TRZAWR; assay type: in vivo, Triticum aestivum; settings: postemergence spray, rated about two-three weeks after treatment
Summary of the method: as §2

ORYSAT Rice, Tebonnet [10] = assay: Preemergence herbicidal evaluation, ORYSAT; assay type: in vivo, Oryza sativa, (L.); settings: preemergence
Summary of the method: as §1

[11] = tested on: CHEAL Lambsquarters, Common; assay: Postemergence herbicidal evaluation, CHEAL; assay type: in vivo, Chenopodium album, L.; settings: postemergence spray, rated about two-three weeks after treatment
Summary of the method: as §2

GLXMAW Soybean, Williams [12] = assay: Postemergence herbicidal evaluation, GLXMAW; assay type: in vivo, Glycine max, (L.) Merr. cv Williams; settings: postemergence spray, rated about two-three weeks after treatment
Summary of the method: as §2

ORYSAT Rice, Tebonnet [13] = assay: Postemergence herbicidal evaluation, ORYSAT; assay type: in vivo, Oryza sativa, (L.); settings: postemergence spray, rated about two-three weeks after treatment
Summary of the method: as §2

ABUTH Velvetleaf [14] = assay: Postemergence herbicidal evaluation, ABUTH; assay type: in vivo, Abutilon theophrasti, Medic.; settings: postemergence spray, rated about two-three weeks after treatment
Summary of the method: as §2

[15] = tested on: IPOHE Morningglory, Ivyleaf; assay: Preemergence herbicidal evaluation, IPOHE; assay type: in vivo, Ipomoea hederacea, (L.) Jacq.; settings: preemergence
Summary of the method: as §1

GALAP Galium [16] = assay: Postemergence herbicidal evaluation, GALAP; assay type: in vivo, Galium aparine; settings: postemergence spray, rated about two-three weeks after treatment
Summary of the method: as §2

[17] = tested on: TRZAWR Wheat, Winter, cv Riband; assay: Preemergence herbicidal evaluation, TRZAWR; assay type: in vivo, Triticum aestivum; settings: preemergence
Summary of the method: as §1

[18] = tested on: IPOHE Morningglory, Ivyleaf; assay: Postemergence herbicidal evaluation, IPOHE; assay type: in vivo, Ipomoea hederacea, (L.) Jacq.; settings: postemergence spray, rated about two-three weeks after treatment
Summary of the method: as §2

ECHOG Barnyardgrass [19] = assay: Postemergence herbicidal evaluation, ECHOG; assay type: in vivo, Echinochloa crus-galli, (L.) Beau; settings: postemergence spray, rated about two-three weeks after treatment
Summary of the method: as §2

GLXMAW Soybean, Williams [20] = assay: Preemergence herbicidal evaluation, GLXMAW; assay type: in vivo, Glycine max, (L.) Merr. cv Williams; settings: preemergence
Summary of the method: as §1

CASOB Sicklepod [21] = assay: Postemergence herbicidal evaluation, CASOB; assay type: in vivo, Cassia obtusifolia, L.; settings: postemergence spray, rated about two-three weeks after treatment
Summary of the method: as §2

[22] = tested on: CHEAL Lambsquarters, Common; assay: Preemergence herbicidal evaluation, CHEAL; assay type: in vivo, Chenopodium album, L.; settings: preemergence
Summary of the method: as §1

ABUTH Velvetleaf [23] = assay: Preemergence herbicidal evaluation, ABUTH; assay type: in vivo, Abutilon theophrasti, Medic.; settings: preemergence
Summary of the method: as §1

GALAP Galium [24] = assay: Preemergence herbicidal evaluation, GALAP; assay type: in vivo, Galium aparine; settings: preemergence
Summary of the method: as §1

Structure (SMILES): CCc1ccccc1-n1nnc2cc(F)c(-n3c(=O)cc(C(F)(F)F)n(C)c3=O)cc21 [Example 25]
- ECHCG herbicidal rating (ECHOG Barnyardgrass [1]; rate 0.016 kg/ha): 0.0
- ECHCG herbicidal rating (ECHOG Barnyardgrass [1]; rate 0.032 kg/ha): 0.0
- ECHCG herbicidal rating (ECHOG Barnyardgrass [1]; rate 0.062 kg/ha): 2.0
- ECHCG herbicidal rating (ECHOG Barnyardgrass [1]; rate 0.125 kg/ha): 8.0
- Postemergence herbicidal rating ZEAMX (ZEAMX Corn, Field [2]; 0.008 kg/ha): 3.0
- Postemergence herbicidal rating ZEAMX (ZEAMX Corn, Field [2]; 0.016 kg/ha): 3.5
- Postemergence herbicidal rating ZEAMX (ZEAMX Corn, Field [2]; 0.032 kg/ha): 4.0
- Postemergence herbicidal rating ZEAMX (ZEAMX Corn, Field [2]; 0.062 kg/ha): 5.0
- SETVI herbicidal rating (SETVI Foxtail, Green [3]; rate 0.016 kg/ha): 0.0
- SETVI herbicidal rating (SETVI Foxtail, Green [3]; rate 0.032 kg/ha): 3.5
- SETVI herbicidal rating (SETVI Foxtail, Green [3]; rate 0.062 kg/ha): 9.0
- SETVI herbicidal rating (SETVI Foxtail, Green [3]; rate 0.125 kg/ha): 9.0
- ZEAMX herbicidal rating (ZEAMX Corn, Field [4]; rate 0.016 kg/ha): 0.0
- ZEAMX herbicidal rating (ZEAMX Corn, Field [4]; rate 0.032 kg/ha): 0.0
- ZEAMX herbicidal rating (ZEAMX Corn, Field [4]; rate 0.062 kg/ha): 2.0
- ZEAMX herbicidal rating (ZEAMX Corn, Field [4]; rate 0.125 kg/ha): 4.0
- Postemergence herbicidal rating SETVI (SETVI Foxtail, Green [5]; 0.008 kg/ha): 0.0
- Postemergence herbicidal rating SETVI (SETVI Foxtail, Green [5]; 0.016 kg/ha): 0.0
- Postemergence herbicidal rating SETVI (SETVI Foxtail, Green [5]; 0.032 kg/ha): 3.0
- Postemergence herbicidal rating SETVI (SETVI Foxtail, Green [5]; 0.062 kg/ha): 7.0
- CASOB herbicidal rating (CASOB Sicklepod [6]; rate 0.016 kg/ha): 0.0
- CASOB herbicidal rating (CASOB Sicklepod [6]; rate 0.032 kg/ha): 0.0
- CASOB herbicidal rating (CASOB Sicklepod [6]; rate 0.062 kg/ha): 1.5
- CASOB herbicidal rating (CASOB Sicklepod [6]; rate 0.125 kg/ha): 2.0
- Postemergence herbicidal rating AMBEL (AMBEL Ragweed, Common [7]; 0.008 kg/ha): 0.0
- Postemergence herbicidal rating AMBEL (AMBEL Ragweed, Common [7]; 0.016 kg/ha): 0.0
- Postemergence herbicidal rating AMBEL (AMBEL Ragweed, Common [7]; 0.032 kg/ha): 2.0
- Postemergence herbicidal rating AMBEL (AMBEL Ragweed, Common [7]; 0.062 kg/ha): 2.0
- AMBEL herbicidal rating (AMBEL Ragweed, Common [8]; rate 0.016 kg/ha): 0.0
- AMBEL herbicidal rating (AMBEL Ragweed, Common [8]; rate 0.032 kg/ha): 0.0
- AMBEL herbicidal rating (AMBEL Ragweed, Common [8]; rate 0.062 kg/ha): 1.0
- AMBEL herbicidal rating (AMBEL Ragweed, Common [8]; rate 0.125 kg/ha): 3.5
- Postemergence herbicidal rating TRZAWR ([9]; 0.008 kg/ha): 1.5
- Postemergence herbicidal rating TRZAWR ([9]; 0.016 kg/ha): 2.5
- Postemergence herbicidal rating TRZAWR ([9]; 0.032 kg/ha): 3.0
- Postemergence herbicidal rating TRZAWR ([9]; 0.062 kg/ha): 3.0
- ORYSAT herbicidal rating (ORYSAT Rice, Tebonnet [10]; rate 0.016 kg/ha): 0.0
- ORYSAT herbicidal rating (ORYSAT Rice, Tebonnet [10]; rate 0.032 kg/ha): 0.0
- ORYSAT herbicidal rating (ORYSAT Rice, Tebonnet [10]; rate 0.062 kg/ha): 0.0
- ORYSAT herbicidal rating (ORYSAT Rice, Tebonnet [10]; rate 0.125 kg/ha): 1.5
- Postemergence herbicidal rating CHEAL ([11]; 0.008 kg/ha): 3.0
- Postemergence herbicidal rating CHEAL ([11]; 0.016 kg/ha): 9.0
- Postemergence herbicidal rating CHEAL ([11]; 0.032 kg/ha): 9.0
- Postemergence herbicidal rating CHEAL ([11]; 0.062 kg/ha): 9.0
- Postemergence herbicidal rating GLXMAW (GLXMAW Soybean, Williams [12]; 0.008 kg/ha): 3.0
- Postemergence herbicidal rating GLXMAW (GLXMAW Soybean, Williams [12]; 0.016 kg/ha): 4.5
- Postemergence herbicidal rating GLXMAW (GLXMAW Soybean, Williams [12]; 0.032 kg/ha): 5.0
- Postemergence herbicidal rating GLXMAW (GLXMAW Soybean, Williams [12]; 0.062 kg/ha): 6.5
- Postemergence herbicidal rating ORYSAT (ORYSAT Rice, Tebonnet [13]; 0.008 kg/ha): 0.5
- Postemergence herbicidal rating ORYSAT (ORYSAT Rice, Tebonnet [13]; 0.016 kg/ha): 1.0
- Postemergence herbicidal rating ORYSAT (ORYSAT Rice, Tebonnet [13]; 0.032 kg/ha): 1.5
- Postemergence herbicidal rating ORYSAT (ORYSAT Rice, Tebonnet [13]; 0.062 kg/ha): 2.0
- Postemergence herbicidal rating ABUTH (ABUTH Velvetleaf [14]; 0.008 kg/ha): 6.0
- Postemergence herbicidal rating ABUTH (ABUTH Velvetleaf [14]; 0.016 kg/ha): 8.0
- Postemergence herbicidal rating ABUTH (ABUTH Velvetleaf [14]; 0.032 kg/ha): 9.0
- Postemergence herbicidal rating ABUTH (ABUTH Velvetleaf [14]; 0.062 kg/ha): 9.0
- IPOHE herbicidal rating ([15]; rate 0.016 kg/ha): 0.0
- IPOHE herbicidal rating ([15]; rate 0.032 kg/ha): 4.5
- IPOHE herbicidal rating ([15]; rate 0.062 kg/ha): 5.5
- IPOHE herbicidal rating ([15]; rate 0.125 kg/ha): 6.5
- Postemergence herbicidal rating GALAP (GALAP Galium [16]; 0.008 kg/ha): 0.0
- Postemergence herbicidal rating GALAP (GALAP Galium [16]; 0.016 kg/ha): 0.0
- Postemergence herbicidal rating GALAP (GALAP Galium [16]; 0.032 kg/ha): 4.0
- Postemergence herbicidal rating GALAP (GALAP Galium [16]; 0.062 kg/ha): 4.0
- TRZAWR herbicidal rating ([17]; rate 0.016 kg/ha): 0.0
- TRZAWR herbicidal rating ([17]; rate 0.032 kg/ha): 0.0
- TRZAWR herbicidal rating ([17]; rate 0.062 kg/ha): 0.0
- TRZAWR herbicidal rating ([17]; rate 0.125 kg/ha): 2.0
- Postemergence herbicidal rating IPOHE ([18]; 0.008 kg/ha): 2.0
- Postemergence herbicidal rating IPOHE ([18]; 0.016 kg/ha): 3.0
- Postemergence herbicidal rating IPOHE ([18]; 0.032 kg/ha): 9.0
- Postemergence herbicidal rating IPOHE ([18]; 0.062 kg/ha): 9.0
- Postemergence herbicidal rating ECHCG (ECHOG Barnyardgrass [19]; 0.008 kg/ha): 0.0
- Postemergence herbicidal rating ECHCG (ECHOG Barnyardgrass [19]; 0.016 kg/ha): 0.0
- Postemergence herbicidal rating ECHCG (ECHOG Barnyardgrass [19]; 0.032 kg/ha): 0.0
- Postemergence herbicidal rating ECHCG (ECHOG Barnyardgrass [19]; 0.062 kg/ha): 0.0
- GLXMAW herbicidal rating (GLXMAW Soybean, Williams [20]; rate 0.016 kg/ha): 0.0
- GLXMAW herbicidal rating (GLXMAW Soybean, Williams [20]; rate 0.032 kg/ha): 0.0
- GLXMAW herbicidal rating (GLXMAW Soybean, Williams [20]; rate 0.062 kg/ha): 2.0
- GLXMAW herbicidal rating (GLXMAW Soybean, Williams [20]; rate 0.125 kg/ha): 1.5
- Postemergence herbicidal rating CASOB (CASOB Sicklepod [21]; 0.008 kg/ha): 0.0
- Postemergence herbicidal rating CASOB (CASOB Sicklepod [21]; 0.016 kg/ha): 0.0
- Postemergence herbicidal rating CASOB (CASOB Sicklepod [21]; 0.032 kg/ha): 0.0
- Postemergence herbicidal rating CASOB (CASOB Sicklepod [21]; 0.062 kg/ha): 1.0
- CHEAL herbicidal rating ([22]; rate 0.016 kg/ha): 9.0
- CHEAL herbicidal rating ([22]; rate 0.032 kg/ha): 9.0
- CHEAL herbicidal rating ([22]; rate 0.062 kg/ha): 9.0
- CHEAL herbicidal rating ([22]; rate 0.125 kg/ha): 9.0
- ABUTH herbicidal rating (ABUTH Velvetleaf [23]; rate 0.016 kg/ha): 3.0
- ABUTH herbicidal rating (ABUTH Velvetleaf [23]; rate 0.032 kg/ha): 6.0
- ABUTH herbicidal rating (ABUTH Velvetleaf [23]; rate 0.062 kg/ha): 6.0
- ABUTH herbicidal rating (ABUTH Velvetleaf [23]; rate 0.125 kg/ha): 9.0
- GALAP herbicidal rating (GALAP Galium [24]; rate 0.016 kg/ha): 0.0
- GALAP herbicidal rating (GALAP Galium [24]; rate 0.032 kg/ha): 0.0
- GALAP herbicidal rating (GALAP Galium [24]; rate 0.062 kg/ha): 0.0
- GALAP herbicidal rating (GALAP Galium [24]; rate 0.125 kg/ha): 0.0
